Several values for one entry are separate records, joined by “and”; a condition that tells them apart may be missing. Identical values can stand only once. Toxic doses and inconclusive results are not listed. Rule for the calls: active = survival T/C of 150% or more; inactive = T/C below 125% in these data.
Test system: C57BL/6 mice, intracerebral ependymoblastoma, median survival T/C
Test: NCI In Vivo Anticancer Drug Screen. Data for tumor model Ependymoblastoma (intracerebral) in C57BL/6 mice
Settings: endpoint: median survival time, higher = longer survival
Protocol: The antitumor activity of compounds was measured in mice bearing transplantable tumors. Survival or tumor size were measured and the results are expressed as the measurement made in the treated group (T) divided by the measurement made in the vehicle treated control group (C). The tumor model used in this assay is Ependymoblastoma (intracerebral) in C57BL/6 mice

Measured: T/C

CCOC(=O)CNC(=O)CCCCSc1ncnc2nc[nH]c12
inactive: dose: 1.0 mg/kg/injection, schedule: Q01DX005 (ip), vehicle: Klucel (hydroxypropylcellulose) (HPC) 109 % of control | dose: 4.0 mg/kg/injection, schedule: Q01DX005 (ip), vehicle: saline 103 % of control | dose: 8.0 mg/kg/injection, schedule: Q01DX005 (ip), vehicle: Klucel (hydroxypropylcellulose) (HPC) 104 % of control | dose: 16.0 mg/kg/injection, schedule: Q01DX001 (ip), vehicle: Klucel (hydroxypropylcellulose) (HPC) 104 % of control and 105 % of control and 106 % of control | dose: 16.0 mg/kg/injection, schedule: Q01DX001 (oral), vehicle: Klucel (hydroxypropylcellulose) (HPC) 95 % of control and 102 % of control | dose: 16.0 mg/kg/injection, schedule: Q01DX005 (ip), vehicle: saline 95 % of control and 103 % of control | dose: 16.0 mg/kg/injection, schedule: Q01DX005 (oral), vehicle: Klucel (hydroxypropylcellulose) (HPC) 94 % of control | dose: 16.0 mg/kg/injection, schedule: Q#A X002 (ip), vehicle: Klucel (hydroxypropylcellulose) (HPC) 108 % of control | dose: 32.0 mg/kg/injection, schedule: Q01DX005 (ip), vehicle: Klucel (hydroxypropylcellulose) (HPC) 103 % of control and 117 % of control | dose: 32.0 mg/kg/injection, schedule: Q## X006 (ip), vehicle: Klucel (hydroxypropylcellulose) (HPC) 102 % of control | dose: 64.0 mg/kg/injection, schedule: Q01DX001 (ip), vehicle: Klucel (hydroxypropylcellulose) (HPC) 90 % of control and 100 % of control and 108 % of control | dose: 64.0 mg/kg/injection, schedule: Q01DX001 (oral), vehicle: Klucel (hydroxypropylcellulose) (HPC) 102 % of control and 103 % of control | dose: 64.0 mg/kg/injection, schedule: Q01DX005 (ip), vehicle: saline 102 % of control and 107 % of control | dose: 64.0 mg/kg/injection, schedule: Q01DX005 (oral), vehicle: Klucel (hydroxypropylcellulose) (HPC) 106 % of control | dose: 64.0 mg/kg/injection, schedule: Q## X006 (ip), vehicle: Klucel (hydroxypropylcellulose) (HPC) 120 % of control | dose: 64.0 mg/kg/injection, schedule: Q#A X002 (ip), vehicle: Klucel (hydroxypropylcellulose) (HPC) 116 % of control | dose: 128.0 mg/kg/injection, schedule: Q01DX005 (ip), vehicle: Klucel (hydroxypropylcellulose) (HPC) 113 % of control and 116 % of control | dose: 128.0 mg/kg/injection, schedule: Q## X006 (ip), vehicle: Klucel (hydroxypropylcellulose) (HPC) 106 % of control | dose: 256.0 mg/kg/injection, schedule: Q01DX001 (ip), vehicle: Klucel (hydroxypropylcellulose) (HPC) 96 % of control and 106 % of control and 113 % of control | dose: 256.0 mg/kg/injection, schedule: Q01DX001 (oral), vehicle: Klucel (hydroxypropylcellulose) (HPC) 107 % of control | dose: 256.0 mg/kg/injection, schedule: Q01DX005 (ip), vehicle: saline 92 % of control and 109 % of control | dose: 256.0 mg/kg/injection, schedule: Q01DX005 (oral), vehicle: Klucel (hydroxypropylcellulose) (HPC) 108 % of control | dose: 256.0 mg/kg/injection, schedule: Q## X006 (ip), vehicle: Klucel (hydroxypropylcellulose) (HPC) 115 % of control | dose: 256.0 mg/kg/injection, schedule: Q#A X002 (ip), vehicle: Klucel (hydroxypropylcellulose) (HPC) 114 % of control | dose: 266.0 mg/kg/injection, schedule: Q01DX005 (ip), vehicle: Klucel (hydroxypropylcellulose) (HPC) 113 % of control and 120 % of control | dose: 512.0 mg/kg/injection, schedule: Q01DX005 (ip), vehicle: Klucel (hydroxypropylcellulose) (HPC) 108 % of control | dose: 512.0 mg/kg/injection, schedule: Q## X006 (ip), vehicle: Klucel (hydroxypropylcellulose) (HPC) 105 % of control | dose: 1024.0 mg/kg/injection, schedule: Q01DX001 (ip), vehicle: Klucel (hydroxypropylcellulose) (HPC) 103 % of control and 106 % of control and 112 % of control | dose: 1024.0 mg/kg/injection, schedule: Q01DX001 (oral), vehicle: Klucel (hydroxypropylcellulose) (HPC) 91 % of control and 97 % of control | dose: 1024.0 mg/kg/injection, schedule: Q01DX005 (ip), vehicle: saline 109 % of control | dose: 1024.0 mg/kg/injection, schedule: Q01DX005 (oral), vehicle: Klucel (hydroxypropylcellulose) (HPC) 115 % of control | dose: 1024.0 mg/kg/injection, schedule: Q#A X002 (ip), vehicle: Klucel (hydroxypropylcellulose) (HPC) 99 % of control

Reference: PubChem BioAssay AID222 (DTP/NCI, 2004)
